# Experimental data: patent US20140107100A1, “Benzoxazepines as Inhibitors of PI3K/mTOR and Methods of Their Use and Manufacture” (EXELIXIS, INC., priority 2010, published 2014)
# Target: mTOR/GbL/Raptor (mTORC1) (Homo sapiens, UniProt P42345)
# Experiment: mTOR/GbL/Raptor (mTORC1) ELISA assay, phosphorylation of 4E-BP1
# Format: biochemical
# Details: 0.2 nM mTORC1, 40 uM ATP, 50 nM NHis-tagged 4E-BP1, 120 minutes; read-out: IC50 in this assay (mTORC1 ELISA)
# Procedure: The measurement of mTORC1 enzyme activity was performed in an ELISA assay format following the phosphorylation of 4E-BP1 protein. All experiments were performed in the 384-well format. Generally, 0.5 μL DMSO containing varying concentrations of the test Compound was mixed with 15 μL enzyme solution. Kinase reactions were initiated with the addition of 15 μL of substrates-containing solution. The assay conditions were-as follows; 0.2 nM mTORC1, 40 uM ATPand 50 nM NHis-tagged4E-BP1 in20 mM Hepes, pH 7.2, 1 mM DTT, 50 mMNaC1, 10 mM MnC12, 0.02 mg/mL BSA, 0.01% CHAPS, 50 mM β-glycerophosphate. Following an incubation of 120 minutes at anibient temperature, 20 μL of the reaction volume was transferred to a Ni-Chelate-coated 384-well plate. The binding step of the 4E-BP1 protein proceeded for 60 minutes, followed by washing 4 times each with 50 uL of Tris-buffered saline solution (TBS). Anti-phospho-4E-BPl rabbit-IgG ([…]. 1:5000) in 5% BSA-TBST (0.2% Tween-20 in TBS) was added and further incubated for 60 minutes. Incubation with a secondary HRP-tagged anti-IgG was similarly performed after washing off the primary antibody (4 washes of 50 μL). Following the final wash step with TBST, 20 μL of SuperSignal ELISA Femto (Pierce Biotechnology) was added and the luminescence measured using an En Vision plate reader.
row,IC50 [µM],Structure (SMILES)
1,≤ 0.1,"CCc1c(Cl)nc(N)nc1N1CCOc2c(C)cc(-c3cnc4sc(N)nc4c3)cc2C1 [Compound 54, 6-[4-(2-amino-6-chloro-5-ethylpyrimidin-4-yl)-9-methyl-2,3,4,5-tetrahydro-1,4-benzoxazepin-7-yl}[1,3]thiazolo[5,4-b]pyridin-2-amine]"
2,≤ 0.1,"Cc1cc(-c2cnc3sc(N)nc3c2)cc2c1OCCN(c1nc(N)ccc1C#N)C2 [Compound 55, 6-amino-2-[7-(2-amino[1,3]thiazolo[5,4-b]pyridin-6-yl)-9-methyl-2,3-dihydro-1,4-benzoxazepin-4(5H)-yl]pyridine-3-carbonitrile]"
3,≤ 0.1,"CCc1nc(N)nc(N2CCOc3c(C)cc(-c4cnc5sc(N)nc5c4)cc3C2)c1C(C)C [Compound 56, 6-{4-[2-amino-6-ethyl-5-(1-methylethyl)pyrimidin-4-yl]-9-methyl-2,3,4,5-tetrahydro-1,4-benzoxazepin-7-yl}[1,3]thiazolo[5,4-b]pyridin-2-amine]"
4,≤ 0.1,"Cc1cc(-c2cnc3sc(N)nc3c2)cc2c1OCCN(c1nc(N)c(C#N)c(C)c1C#N)C2 [Compound 57, 2-amino-6-[7-(2-amino[1,3]thiazolo[5,4-b]pyridin-6-yl)-9-methyl-2,3-dihydro-1,4-benzoxazepin-4(5H)-yl]-4-methylpyridine-3,5-dicarbonitrile]"
5,≤ 0.1,"Cc1cc(-c2cnc3sc(N)nc3c2)cc2c1OCCN(c1nc(CN(C)C)ncc1C(C)C)C2 [Compound 58, 6-(4-{2-[(dimethylamino)methyl]-5-(1-methylethyl)pyrimidin-4-yl}-9-methyl-2,3,4,5-tetrahydro-1,4-benzoxazepin-7-yl)[1,3]thiazolo[5,4-b]pyridin-2-amine]"
6,≤ 0.1,"Cc1cc(-c2cnc3sc(N)nc3c2)cc2c1OCCN(c1nc(CN3CCCC3)nc(C)c1C(C)C)C2 [Compound 59, 6-{9-methyl-4-[6-methyl-5-(1-methylethyl)-2-(pyrrolidin-1-ylmethyl)pyrimidin-4-yl]-2,3,4,5-tetrahydro-1,4-benzoxazepin-7-yl}[1,3]thiazolo[5,4-b]pyridin-2-amine]"
7,0.1 to 0.5,"Cc1cc(-c2cnc3sc(N)nc3c2)cc2c1OCCN(c1nc(CN(C)C)ncc1CC(F)(F)F)C2 [Compound 60, 6-(4-{2-[(dimethylamino)methyl]-5-(2,2,2-trifluoroethyl)pyrimidin-4-yl}-9-methyl-2,3,4,5-tetrahydro-1,4-benzoxazepin-7-yl)[1,3]thiazolo[5,4-b]pyridin-2-amine]"
8,≤ 0.1,"CCc1c(Cl)nc(CN(C)C)nc1N1CCOc2c(C)cc(-c3cnc4sc(N)nc4c3)cc2C1 [Compound 61, 6-(4-{6-chloro-2-[(dimethylamino)methyl]-5-ethylpyrimidin-4-yl}-9-methyl-2,3,4,5-tetrahydro-1,4-benzoxazepin-7-yl)[1,3]thiazolo[5,4-b]pyridin-2-amine]"
9,≤ 0.1,"Cc1cc(-c2cnc3sc(N)nc3c2)cc2c1OCCN(c1nc(N)nc(Cl)c1C(C)C)C2 [Compound 62, 6-{4-[2-amino-6-chloro-5-(1-methylethyl)pyrimidin-4-yl]-9-methyl-2,3,4,5-tetrahydro-1,4-benzoxazepin-7-yl}[1,3]thiazolo[5,4-b]pyridin-2-amine]"
10,≤ 0.1,"Cc1cc(-c2cnc3sc(N)nc3c2)cc2c1OCCN(c1nc(CN(C)C)nc(Cl)c1C(C)C)C2 [Compound 63, 6-(4-{6-chloro-2-[(dimethylamino)methyl]-5-(1-methylethyl)pyrimidin-4-yl}-9-methyl-2,3,4,5-tetrahydro-1,4-benzoxazepin-7-yl)[1,3]thiazolo[5,4-b]pyridin-2-amine]"
11,≤ 0.1,"Cc1cc(-c2cnc3sc(N)nc3c2)cc2c1OCCN(c1nc(CO)nc(C)c1C(C)C)C2 [Compound 64, {4-[7-(2-amino[1,3]thiazolo[5,4-b]pyridin-6-yl)-9-methyl-2,3-dihydro-1,4-benzoxazepin-4(5H)-yl]-6-methyl-5-(1-methylethyl)pyrimidin-2-yl}methanol]"
12,≤ 0.1,"CCN(CC)Cc1nc(C)c(C(C)C)c(N2CCOc3c(C)cc(-c4cnc5sc(N)nc5c4)cc3C2)n1 [Compound 65, 6-(4-{2-[(diethylamino)methyl]-6-methyl-5-(1-methylethyl)pyrimidin-4-yl}-9-methyl-2,3,4,5-tetrahydro-1,4-benzoxazepin-7-yl)[1,3]thiazolo[5,4-b]pyridin-2-amine]"
13,≤ 0.1,"CCc1cnc(CN(C)C)nc1N1CCOc2c(C)cc(-c3cnc4sc(N)nc4c3)cc2C1 [Compound 66, 6-(4-{2-[(dimethylamino)methyl]-5-ethylpyrimidin-4-yl}-9-methyl-2,3,4,5-tetrahydro-1,4-benzoxazepin-7-yl)[1,3]thiazolo[5,4-b]pyridin-2-amine]"
14,≤ 0.1,"CCc1c(C)nc(CN(C)C)nc1N1CCOc2c(C)cc(-c3cnc4sc(N)nc4c3)cc2C1 [Compound 67, 6-(4-{2-[(dimethylamino)methyl]-5-ethyl-6-methylpyrimidin-4-yl}-9-methyl-2,3,4,5-tetrahydro-1,4-benzoxazepin-7-yl)[1,3]thiazolo[5,4-b]pyridin-2-amine]"
15,0.1 to 0.5,"Cc1cc(-c2cccc(O)c2)cc2c1OCCN(c1nc(N)nc(C)c1C(C)C)C2 [Compound 70, 3-{4-[2-amino-6-methyl-5-(1-methylethyl)pyrimidin-4-yl]-9-methyl-2,3,4,5-tetrahydro-1,4-benzoxazepin-7-yl}phenol]"
16,0.1 to 0.5,"Cc1cc(-c2cncnc2)cc2c1OCCN(c1nc(N)nc(C)c1C(C)C)C2 [Compound 71, 4-methyl-5-(1-methylethyl)-6-(9-methyl-7-pyrimidin-5-yl-2,3-dihydro-1,4-benzoxazepin-4(5H)-yl)pyrimidin-2-amine]"
17,0.1 to 0.5,"Cc1cc(-c2ccn[nH]2)cc2c1OCCN(c1nc(N)nc(C)c1C(C)C)C2 [Compound 72, 4-methyl-5-(1-methylethyl)-6-[9-methyl-7-(1H-pyrazol-5-yl)-2,3-dihydro-1,4-benzoxazepin-4(5H)-yl]pyrimidin-2-amine]"
18,0.1 to 0.5,"Cc1cc(-c2ccc3c(c2)OCO3)cc2c1OCCN(c1nc(N)nc(C)c1C(C)C)C2 [Compound 73, 4-[7-(1,3-benzodioxol-5-yl)-9-methyl-2,3-dihydro-1,4-benzoxazepin-4(5H)-yl]-6-methyl-5-(1-methylethyl)pyrimidin-2-amine]"
19,0.1 to 0.5,"COc1ccc(-c2cc(C)c3c(c2)CN(c2nc(N)nc(C)c2C(C)C)CCO3)cn1 [Compound 74, 4-methyl-5-(1-methylethyl)-6-{9-methyl-7-[6-(methyloxy)pyridin-3-yl]-2,3-dihydro-1,4-benzoxazepin-4(5H)-yl}pyrimidin-2-amine]"
20,0.1 to 0.5,Cc1cc(-c2ccncc2)cc2c1OCCN(c1nc(N)nc(C)c1C(C)C)C2 [Compound 75]
21,0.1 to 0.5,"Cc1cc(-c2cccnc2)cc2c1OCCN(c1nc(N)nc(C)c1C(C)C)C2 [Compound 76, 4-methyl-5-(1-methylethyl)-6-(9-methyl-7-pyridin-3-yl-2,3-dihydro-1,4-benzoxazepin-4(5H)-yl)pyrimidin-2-amine]"
22,0.1 to 0.5,"Cc1cc(-c2cccc(C(N)=O)c2)cc2c1OCCN(c1nc(N)nc(C)c1C(C)C)C2 [Compound 77, 3-{4-[2-amino-6-methyl-5-(1-methylethyl)pyrimidin-4-yl]-9-methyl-2,3,4,5-tetrahydro-1,4-benzoxazepin-7-yl}benzamide]"
